From patent publication US20240116879A1, “AMILORIDE DERIVATIVES AND METHODS OF USING SAME FOR THE TREATMENT OF VIRAL INFECTIONS” (priority 2020, published 2024)
pIC50: −log10 of the molar value.

Assays:
[1] = test system: SARS-CoV-2; assay type: cell-based; settings: for viral titer compared to DMSO (TCID50 assay): 10 μM and 50 μM, MOI 0.1, 3 days; for antiviral activity compared to parent scaffold DMA-01: Vero E6 infected with wild-type SARS-CoV-2
[2] = Cytotoxicity MTT assay in Vero E6 cells; assay type: cell-based, African green monkey; settings: African green monkey, Vero E6 cells; Vero E6, 96 hrs, 33° C., MTT
Method: (§1) Cytotoxicity Assays: Various concentrations of DMAs were added to Vero E6 cells in culture. The cells were incubated at 33° C. for 96 hrs. Cell viability was determined by MTT assay and measured at 570 nm according to the manufacturer's instructions (EMD Millipore). All experiments were performed in triplicate. The concentration of DMAs required to reduce cell viability to 50% of the control cells was expressed as CC50.

[3] = test system: Vero E6 cells; test: Cytotoxicity MTT assay in Vero E6 cells; assay type: cell-based, African green monkey; settings: <10 μM, 96 hour, Vero E6
Method: as §1

[4] = test system: VeroE6 cells; settings: uninfected VeroE6, 3 days of treatment, 10 μM and 50 μM
[5] = test system: human coronavirus OC43; assay type: cell-based; settings: for effect on virus titer (in words): 50 μM or 100 μM, Vero E6, MOI=1, 24 hours at 33° C.; for reduced virus titer: 100 μM, Vero E6, MOI=1, 24 hr, plaque formation
[6] = test system: SARS-CoV-2 5′-end and 3′UTR; assay type: cell-based
[7] = test system: SARS-CoV-2 stem loop constructs (SL1, SL4, SL5a, SL5b, SL6); assay type: binding; settings: RiboGreen displacement, Tris buffer pH 7.4
[8] = test system: SARS-CoV-2; test: microbe, parasite or virus in culture; assay type: cell-based; settings: Severe acute respiratory syndrome coronavirus 2, Vero C1008; Vero E6, MOI 0.1, within 24 hours of infection; read-out: approximate IC50, cell-free viral RNA levels
[9] = test system: SARS-CoV-2 SL6 RNA; test: Indicator displacement assay (IDA), SL6; assay type: binding; settings: RiboGreen displacement, Tris buffer pH 7.4
[10] = test system: SARS-CoV-2 SL1 RNA; test: Indicator displacement assay (IDA), SL1; assay type: binding; settings: RiboGreen displacement, Tris buffer pH 7.4
[11] = test system: SARS-CoV-2 SL4 RNA; test: Indicator displacement assay (IDA), SL4; assay type: binding; settings: RiboGreen displacement, Tris buffer pH 7.4

## CN(C)c1nc(N)c(C(=O)NC(=N)N)nc1-c1ccccc1 [DMA-132]
[1]
  viral titer compared to DMSO (TCID50 assay): dose-dependent reduction in viral titer
  antiviral activity compared to parent scaffold DMA-01: improved antiviral activity
[2]
  CC50 at 96 h: > 100 µM
[3]
  cell viability: do not significantly reduce cell viability
[4]
  cellular viability as measured by ATP content: without measurable effect on cellular viability
[5]
  effect on virus titer (in words): reduce virus titer in a dose-dependent manner
  reduced virus titer: ~1,000 fold
[6]
  reduction of FLuc activity: approximately 50%
[7]
  binding affinity against any of the constructs (IDA): did not show binding affinity

## CN(C)c1nc(N)c(C(=O)N=C(N)N)nc1Cl [DMA-1, dimethylamiloride, reference compound]
[5]
  effect on virus titer (in words): no activity
[7]
  binding affinity against any of the constructs (IDA): did not show binding affinity

## CN(C)c1nc(N)c(C(=O)NC(=N)N)nc1-c1ccc(-c2ccccc2)cc1 [DMA-155]
[8]
  pIC50: ~4.80
[1]
  antiviral activity compared to parent scaffold DMA-01: improved antiviral activity
[2]
  CC50 at 96 h: ~90 µM
[3]
  cell viability: do not significantly reduce cell viability
[5]
  effect on virus titer (in words): reduce virus titer in a dose-dependent manner
  reduced virus titer: ~1,000 fold
[9]
  affinity for SL6 (IDA): strong binder with highest affinity for SL6
[6]
  reduction of FLuc activity: ~90%

## CN(C)c1nc(N)c(C(=O)NC(=N)N)nc1C#Cc1ccccc1 [DMA-135]
[8]
  pIC50: ~5.00
[10]
  affinity for SL1 (IDA): weak affinity
[1]
  viral titer compared to DMSO (TCID50 assay): dose-dependent reduction in viral titer
  antiviral activity compared to parent scaffold DMA-01: improved antiviral activity
[2]
  CC50 at 96 h: > 100 µM
[3]
  cell viability: do not significantly reduce cell viability
[4]
  cellular viability as measured by ATP content: without measurable effect on cellular viability
[11]
  affinity for SL4 (IDA): weak affinity
[5]
  effect on virus titer (in words): reduce virus titer in a dose-dependent manner
  reduced virus titer: ~1,000 fold
[9]
  affinity for SL6 (IDA): weak affinity
[6]
  reduction of FLuc activity: approximately 50%
